Experimental data: US20250081967A1, “PESTICIDALLY ACTIVE HETEROCYCLIC DERIVATIVES WITH SULFOXIMINE CONTAINING SUBSTITUENTS” (SYNGENTA CROP PROTECTION AG, priority 2021, published 2025)

Tests used:
Format in all cases: in vivo
Spodoptera littoralis = experiment: Activity against Spodoptera littoralis (Egyptian cotton leaf worm), cotton leaf discs; details: foliar, 72 h, application rate 200 ppm, L1 larvae, 3 days after infestation, read-out: control (mortality, anti-feeding effect or growth inhibition)
Outline: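 Cotton leaf discs on agar sprayed with aqueous test solutions made from 10′000 ppm DMSO stocks, dried, then infested with five L1 larvae. Mortality, anti-feeding and growth inhibition scored versus untreated samples 3 days after infestation; control given when any category exceeds untreated.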

Diabrotica balteata = experiment: Activity against Diabrotica balteata (corn root worm), maize sprouts; details: 96 h, application rate 200 ppm, L2 larvae, 4 days after infestation, read-out: effect in at least one of the two categories (mortality or growth inhibition)
Protocol: Example B3: Activity Against Diabrotica Balteata (Corn Root Worm)
Maize sprouts placed onto an agar layer in 24-well microtiter plates were treated with aqueous test solutions prepared from 10′000 ppm DMSO stock solutions by spraying. After drying, the plates were infested with L2 larvae (6 to 10 per well). The samples were assessed for mortality and growth inhibition in comparison to untreated samples 4 days after infestation.

Plutella xylostella = experiment: Activity against Plutella xylostella (diamond back moth), artificial diet, L2 larvae; details: 120 h, application rate 200 ppm, 5 days after infestation, read-out: effect in at least one of the two categories (mortality or growth inhibition)
Protocol: Example B2: Activity Against Plutella xylostella (Diamond Back Moth)
24-well microtiter plates with artificial diet were treated with aqueous test solutions prepared from 10′000 ppm DMSO stock solutions by pipetting. After drying, the plates were infested with L2 larvae (10 to 15 per well). The samples were assessed for mortality and growth inhibition in comparison to untreated samples 5 days after infestation.

Myzus persicae [1] = experiment: Activity against Myzus persicae (green peach aphid), feeding/contact activity, sunflower leaf discs; details: Myzus persicae, foliar, 144 h, application rate 200 ppm; feeding/contact; 6 days after infestation
Protocol: Example B4: Activity Against Myzus persicae (Green Peach Aphid) Feeding/Contact Activity
Sunflower leaf discs were placed on agar in a 24-well microtiter plate and sprayed with aqueous test solutions prepared from 10′000 ppm DMSO stock solutions. After drying, the leaf discs were infested with an aphid population of mixed ages. The samples were assessed for mortality 6 days after infestation.

Bemisia tabaci = experiment: Activity against Bemisia tabaci (cotton white fly), cotton leaf discs; details: foliar, 144 h, application rate 200 ppm, adult white flies, 6 days after incubation
Protocol: Example B6: Activity Against Bemisia tabaci (Cotton White Fly)
Cotton leaf discs were placed on agar in 24-well microtiter plates and sprayed with aqueous test solutions prepared from 10′000 ppm DMSO stock solutions. After drying the leaf discs were infested with adult white flies. The samples were checked for mortality 6 days after incubation.

Myzus persicae [2] = experiment: Activity against Myzus persicae (green peach aphid), systemic activity, pea seedlings; details: Myzus persicae, 144 h, test rate 24 ppm; systemic; 6 days after placing seedlings in test solutions
Protocol: Example B5: Activity Against Myzus persicae (Green Peach Aphid) Systemic Activity
Roots of pea seedlings infested with an aphid population of mixed ages were placed directly in the aqueous test solutions prepared from 10′000 DMSO stock solutions. The samples were assessed for mortality 6 days after placing seedlings in test solutions.

Euschistus heros = experiment: Activity against Euschistus heros (neotropical brown stink bug), soybean leaf; details: 120 h, application rate 200 ppm, N-2 nymphs, 5 days after infestation, read-out: effect in at least one of the two categories (mortality or growth inhibition)
Protocol: Example B7: Activity Against Euschistus heros (Neotropical Brown Stink Bug)
Soybean leaf on agar in 24-well microtiter plates were sprayed with aqueous test solutions prepared from 10′000 ppm DMSO stock solutions. After drying the leaf were infested with N-2 nymphs. The samples were assessed for mortality and growth inhibition in comparison to untreated samples 5 days after infestation.

CCS(=N)(=O)c1cc(OC(C)(C)C#N)cnc1-c1cn2ccc(C(F)(F)F)cc2n1 (racemic) [Compound P3, 2-[[5-(ethylsulfonimidoyl)-6-[7-(trifluoromethyl)imidazo[1,2-a]pyridin-2-yl]-3-pyridyl]oxy]-2-methyl-propanenitrile]
≥ 80%: percent control (mortality, anti-feedant effect or growth inhibition) at 200 ppm (Spodoptera littoralis) | percent effect (mortality or growth inhibition) at 200 ppm (Diabrotica balteata) | percent effect (mortality or growth inhibition) at 200 ppm (Plutella xylostella) | mortality at 200 ppm (Myzus persicae [1])

CCS(=N)(=O)c1cc(OC(C)(C)C#N)c(C)nc1-c1nc2cc(C(F)(F)F)cnc2n1C (racemic) [Compound P5, 2-[[5-(ethylsulfonimidoyl)-2-methyl-6-[3-methyl-6-(trifluoromethyl)imidazo[4,5-b]pyridin-2-yl]-3-pyridyl]oxy]-2-methyl-propanenitrile]
≥ 80%: percent control (mortality, anti-feedant effect or growth inhibition) at 200 ppm (Spodoptera littoralis) | percent effect (mortality or growth inhibition) at 200 ppm (Diabrotica balteata) | percent effect (mortality or growth inhibition) at 200 ppm (Plutella xylostella) | mortality at 200 ppm (Bemisia tabaci) | mortality at 24 ppm (Myzus persicae [2]) | percent effect (mortality or growth inhibition) at 200 ppm (Euschistus heros) | mortality at 200 ppm (Myzus persicae [1])

CCS(=N)(=O)c1cc(C2(C#N)CC2)ccc1-c1nc2cc(C(F)(F)F)cnc2n1C (racemic) [Compound P6, 1-[3-(ethylsulfonimidoyl)-4-[3-methyl-6-(trifluoromethyl)imidazo[4,5-b]pyridin-2-yl]phenyl]cyclopropanecarbonitrile]
≥ 80%: percent control (mortality, anti-feedant effect or growth inhibition) at 200 ppm (Spodoptera littoralis) | percent effect (mortality or growth inhibition) at 200 ppm (Plutella xylostella) | mortality at 200 ppm (Bemisia tabaci) | mortality at 24 ppm (Myzus persicae [2]) | percent effect (mortality or growth inhibition) at 200 ppm (Euschistus heros) | mortality at 200 ppm (Myzus persicae [1])

CCS(=N)(=O)c1cc(C2(C#N)CC2)cnc1-c1nc2cc(C(F)(F)F)n(OC)c(=O)c2n1C (racemic) [Compound P8, 1-[5-(ethylsulfonimidoyl)-6-[5-methoxy-3-methyl-4-oxo-6-(trifluoromethyl)imidazo[4,5-c]pyridin-2-yl]-3-pyridyl]cyclopropanecarbonitrile]
≥ 80%: percent control (mortality, anti-feedant effect or growth inhibition) at 200 ppm (Spodoptera littoralis) | percent effect (mortality or growth inhibition) at 200 ppm (Diabrotica balteata) | percent effect (mortality or growth inhibition) at 200 ppm (Plutella xylostella) | mortality at 200 ppm (Bemisia tabaci) | mortality at 24 ppm (Myzus persicae [2]) | percent effect (mortality or growth inhibition) at 200 ppm (Euschistus heros) | mortality at 200 ppm (Myzus persicae [1])

CCS(=N)(=O)c1cc(OC(C)(C)C#N)cnc1-c1nc2cc(C(F)(F)F)cnc2n1C (racemic) [Compound P9, 2-[[5-(ethylsulfonimidoyl)-6-[3-methyl-6-(trifluoromethyl)imidazo[4,5-b]pyridin-2-yl]-3-pyridyl]oxy]-2-methyl-propanenitrile]
≥ 80%: percent control (mortality, anti-feedant effect or growth inhibition) at 200 ppm (Spodoptera littoralis) | percent effect (mortality or growth inhibition) at 200 ppm (Diabrotica balteata) | percent effect (mortality or growth inhibition) at 200 ppm (Plutella xylostella) | mortality at 200 ppm (Bemisia tabaci) | mortality at 24 ppm (Myzus persicae [2]) | percent effect (mortality or growth inhibition) at 200 ppm (Euschistus heros) | mortality at 200 ppm (Myzus persicae [1])

CCS(=N)(=O)c1cc(OC(C)(C)C#N)cnc1-c1cn2cnc(C(F)(F)F)cc2n1 (racemic) [Compound P11, 2-[[5-(ethylsulfonimidoyl)-6-[7-(trifluoromethyl)imidazo[1,2-c]pyrimidin-2-yl]-3-pyridyl]oxy]-2-methyl-propanenitrile]
≥ 80%: percent control (mortality, anti-feedant effect or growth inhibition) at 200 ppm (Spodoptera littoralis) | percent effect (mortality or growth inhibition) at 200 ppm (Diabrotica balteata) | percent effect (mortality or growth inhibition) at 200 ppm (Plutella xylostella) | mortality at 200 ppm (Bemisia tabaci) | mortality at 24 ppm (Myzus persicae [2]) | mortality at 200 ppm (Myzus persicae [1])

CCS(=N)(=O)c1cc(C(C)(C)C#N)cnc1-c1nc2cc(C(F)(F)F)cnc2n1C (racemic) [Compound P12, 2-[5-(ethylsulfonimidoyl)-6-[3-methyl-6-(trifluoromethyl)imidazo[4,5-b]pyridin-2-yl]-3-pyridyl]-2-methyl-propanenitrile]
≥ 80%: percent control (mortality, anti-feedant effect or growth inhibition) at 200 ppm (Spodoptera littoralis) | percent effect (mortality or growth inhibition) at 200 ppm (Diabrotica balteata) | percent effect (mortality or growth inhibition) at 200 ppm (Plutella xylostella) | mortality at 200 ppm (Bemisia tabaci) | mortality at 24 ppm (Myzus persicae [2]) | mortality at 200 ppm (Myzus persicae [1])

CCn1c(C(F)(F)F)cc2nc(-c3ncc(C4(C#N)CC4)cc3S(=N)(=O)CC)n(C)c2c1=O (racemic) [Compound P14, 1-[6-[5-ethyl-3-methyl-4-oxo-6-(trifluoromethyl)imidazo[4,5-c]pyridin-2-yl]-5-(ethylsulfonimidoyl)-3-pyridyl]cyclopropanecarbonitrile]
≥ 80%: percent control (mortality, anti-feedant effect or growth inhibition) at 200 ppm (Spodoptera littoralis) | percent effect (mortality or growth inhibition) at 200 ppm (Diabrotica balteata) | percent effect (mortality or growth inhibition) at 200 ppm (Plutella xylostella) | mortality at 200 ppm (Bemisia tabaci) | mortality at 24 ppm (Myzus persicae [2]) | percent effect (mortality or growth inhibition) at 200 ppm (Euschistus heros) | mortality at 200 ppm (Myzus persicae [1])

CCS(=N)(=O)c1cc(OC(C)(C)C#N)cnc1-c1nc2cc(C(F)(F)F)nnc2n1C (racemic) [Compound P15, 2-[[5-(ethylsulfonimidoyl)-6-[7-methyl-3-(trifluoromethyl)imidazo[4,5-c]pyridazin-6-yl]-3-pyridyl]oxy]-2-methyl-propanenitrile]
≥ 80%: percent effect (mortality or growth inhibition) at 200 ppm (Diabrotica balteata) | percent effect (mortality or growth inhibition) at 200 ppm (Plutella xylostella) | mortality at 200 ppm (Bemisia tabaci) | mortality at 24 ppm (Myzus persicae [2]) | percent effect (mortality or growth inhibition) at 200 ppm (Euschistus heros) | mortality at 200 ppm (Myzus persicae [1])

CCS(=N)(=O)c1cc(OC(C)(C)C#N)c(C)nc1-c1nc2cc(C(F)(F)F)ncc2n1C (racemic) [Compound P17, 2-[[5-(ethylsulfonimidoyl)-2-methyl-6-[3-methyl-6-(trifluoromethyl)imidazo[4,5-c]pyridin-2-yl]-3-pyridyl]oxy]-2-methyl-propanenitrile]
≥ 80%: percent control (mortality, anti-feedant effect or growth inhibition) at 200 ppm (Spodoptera littoralis) | percent effect (mortality or growth inhibition) at 200 ppm (Plutella xylostella) | mortality at 200 ppm (Bemisia tabaci) | mortality at 24 ppm (Myzus persicae [2]) | mortality at 200 ppm (Myzus persicae [1])

CCn1c(C(F)(F)F)cc2nc(-c3ncc(OC(C)(C)C#N)cc3S(=N)(=O)CC)n(C)c2c1=O (racemic) [Compound P19, 2-[[6-[5-ethyl-3-methyl-4-oxo-6-(trifluoromethyl)imidazo[4,5-c]pyridin-2-yl]-5-(ethylsulfonimidoyl)-3-pyridyl]oxy]-2-methyl-propanenitrile]
≥ 80%: percent control (mortality, anti-feedant effect or growth inhibition) at 200 ppm (Spodoptera littoralis) | percent effect (mortality or growth inhibition) at 200 ppm (Diabrotica balteata) | percent effect (mortality or growth inhibition) at 200 ppm (Plutella xylostella) | mortality at 200 ppm (Bemisia tabaci) | mortality at 24 ppm (Myzus persicae [2]) | percent effect (mortality or growth inhibition) at 200 ppm (Euschistus heros) | mortality at 200 ppm (Myzus persicae [1])
